Results published in PubChem BioAssay AID1963829 (Molecular Pharmacology Branch, DTP, NCI, 2024).
“And” between values parts separate entries of the source, which are not always exact repeats. Equal values may be shown once.

System: 935938-334-R-J1-PDC complex spheroid viability
Assay: Anticancer human tumor 935938-334-R-J1-PDC patient-derived small intestine adenocarcinoma cell line growth inhibition [POLQ]
Settings: for viability, T/C: stronger effect = lower value; active = viability on the fitted dose curve at most 10% of control; inactive = the rest
Description: Multicellular complex tumor spheroid response to Polymerase (POL) inhibitors (novobiocin, ART-558, RP6685) in combination with a variety of drugs and investigational agents in selected tumor cell lines
The POL inhibitors (novobiocin, ART-558, and RP6685) were evaluated both individually and in combination with standard of care and investigational anticancer small molecules within a complex spheroid model of solid tumors. . Complex spheroids include a stromal component modeled by human endothelial cells (HUVEC) and fibroblasts modeled by human mesenchymal stem cells (MSCs). The concentration ranges selected for each drug and investigational agent were based upon clinically achievable concentrations if the clinical Cmax of the agent was known.
Compounds. The drugs and investigational agents: novobiocin (NSC847541), ART-558 (NSC835418), RP-6685 (NSC848927), peposertib (NSC802822), ceralasertib (NSC780249), elimusertib (NSC800525), camonsertib (NSC841442), AZD-1390 (NSC803789), olaparib (NSC753686), talazoparib (NSC767125), rucaparib (NSC756644), sotorasib (NSC818433), MRTX-1133 (NSC836407), SN-38 (NSC673596), topotecan (NSC609699), epotoside (NSC141540), doxorubicin (NSC123127), gemcitabine (NSC613327), 5-fluorouracil (NSC19893), paclitaxel (NSC125973), vemurafenib (NSC761431), MSA-2 (NSC828583), SN-011 (NSC837082), adavosertib (NSC754352), prexasertib (NSC758257), carboplatin (NSC241240) and oxaliplatin (NSC266046), were obtained from the National Cancer Institute (NCI) Developmental Therapeutics Program Chemical Repository (21). The FDA-approved anticancer drug set is available from the Developmental Therapeutics Program at https://dtp.cancer.gov/organization/dscb/obtaining/. […] The stock solutions were prepared in dimethyl sulfoxide (DMSO, Sigma-Aldrich, St. Louis, MO, cat. D2650), except for the platinum compounds which were prepared in saline (Quality Biological, Gaithersburg, MD, cat. 114-055-101), at 800-fold the tested concentration and stored at -70 degrees C prior to their use. All drugs and investigational agents were tested over a range starting from a high concentration at or near the clinical Cmax and decreasing in half-log increments. If the clinical Cmax for an agent had not been determined, the highest concentration tested was 10 microM, except for SN-38, which was tested at a high concentration of 1 microM.
Cell Culture. All cells were maintained in an incubator at 37 degrees C and 5% CO2 with 95% humidity. The PDC lines were cultured according to standard operating procedures established by the NCI PDMR (https://pdmr.cancer.gov). Table 3 of the manuscript, lists the cell lines along with the number of the three cell types plated to form the mct-spheroids and media for tumor cell growth. After thawing, all PDC lines, except 997537-175-T-J1-PDC and 415267-285-R-J2-PDC, were cultured in Matrigel-coated flasks prepared with a working solution of 1X Ham's F-12 nutrient mix, without supplementation (Thermo Fisher Scientific, cat. 11765054), 100 U/mL penicillin-streptomycin (Thermo Fisher Scientific, cat. 15140122), and 2.5% Matrigel (Corning Inc., Corning, NY, cat. 354248) for the first three passages. The two PDC lines 997537-175-T-J1-PDC and 415267-285-R-J2-PDC were cultured on uncoated flasks. The 857933-349-R-J2-PDC line was cultured in 6C/Colon 1B media containing advanced DMEM/F-12 (Thermo Fisher Scientific, cat. 12634028), 10 mM HEPES (Thermo Fisher Scientific, cat. 15630080), 1X GlutaMAX supplement (Thermo Fisher Scientific, cat. 35050061), 0.1 mg/mL primocin (InvivoGen, San Diego, CA, cat. ant-pm-2), 10% defined fetal bovine serum, heat inactivated (HyClone Laboratories Inc., Logan, UT, cat. SH30070.03HI), 50% L-WRN conditioned media (ATCC, cat. CRL-3276), 1.25 mM N-Acetyl-L-cysteine (Sigma-Aldrich, cat. A9165), 10 mM nicotinamide (Sigma-Aldrich, cat. N0636), 1X B-27 supplement (Thermo Fisher Scientific, cat. 17504044), 1X N-2 supplement (Thermo Fisher Scientific, cat. […]

[1] = curve of first compound, second compound 0.0316 µM
[2] = curve of first compound, second compound 0.1 µM
[3] = curve of first compound, second compound 0.316 µM
[4] = curve of first compound, second compound 1 µM
[5] = curve of first compound, second compound 3.16 µM
[6] = curve of first compound, second compound 10 µM
[7] = second compound 0.0316 µM, first compound 0.0316 µM
[8] = second compound 0.0316 µM, first compound 0.1 µM
[9] = second compound 0.0316 µM, first compound 0.316 µM
[10] = second compound 0.0316 µM, first compound 1 µM
[11] = second compound 0.0316 µM, first compound 3.16 µM
[12] = second compound 0.0316 µM, first compound 10 µM
[13] = second compound 0.1 µM, first compound 0.0316 µM
[14] = second compound 0.1 µM, first compound 0.1 µM
[15] = second compound 0.1 µM, first compound 0.316 µM
[16] = second compound 0.1 µM, first compound 1 µM
[17] = second compound 0.1 µM, first compound 3.16 µM
[18] = second compound 0.1 µM, first compound 10 µM
[19] = second compound 0.316 µM, first compound 0.0316 µM
[20] = second compound 0.316 µM, first compound 0.1 µM
[21] = second compound 0.316 µM, first compound 0.316 µM
[22] = second compound 0.316 µM, first compound 1 µM
[23] = second compound 0.316 µM, first compound 3.16 µM
[24] = second compound 0.316 µM, first compound 10 µM
[25] = second compound 1 µM, first compound 0.0316 µM
[26] = second compound 1 µM, first compound 0.1 µM
[27] = second compound 1 µM, first compound 0.316 µM
[28] = second compound 1 µM, first compound 1 µM
[29] = second compound 1 µM, first compound 3.16 µM
[30] = second compound 1 µM, first compound 10 µM
[31] = second compound 3.16 µM, first compound 0.0316 µM
[32] = second compound 3.16 µM, first compound 0.1 µM
[33] = second compound 3.16 µM, first compound 0.316 µM
[34] = second compound 3.16 µM, first compound 1 µM
[35] = second compound 3.16 µM, first compound 3.16 µM
[36] = second compound 3.16 µM, first compound 10 µM
[37] = second compound 10 µM, first compound 0.0316 µM
[38] = second compound 10 µM, first compound 0.1 µM
[39] = second compound 10 µM, first compound 0.316 µM
[40] = second compound 10 µM, first compound 1 µM
[41] = second compound 10 µM, first compound 3.16 µM
[42] = second compound 10 µM, first compound 10 µM
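Also: spheroids exposed to drugs for seven days before viability read.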
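For viability, T/C in this document: 100% = DMSO vehicle control wells.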

CCCS(=O)(=O)Nc1ccc(F)c(C(=O)c2c[nH]c3ncc(-c4ccc(Cl)cc4)cc23)c1F + COC1C(OC(N)=O)C(O)C(Oc2ccc3c(O)c(NC(=O)c4ccc(O)c(CC=C(C)C)c4)c(=O)oc3c2C)OC1(C)C
8460 nM: IC50 [2]
9270 nM: IC50 [3]
9940 nM: IC50 [6]
9730 nM: IC50 [5]
9130 nM: IC50 [1]
inactive: viability, T/C [7] 96.1% | viability, T/C [8] 142% | viability, T/C [9] 118% | viability, T/C [10] 111% | viability, T/C [11] 101% | viability, T/C [12] 45.4% | viability, T/C [13] 113% | viability, T/C [14] 80.5% | viability, T/C [15] 103% | viability, T/C [16] 110% | viability, T/C [17] 134% | viability, T/C [18] 40.2% | viability, T/C [19] 73.6% | viability, T/C [20] 98.8% | viability, T/C [21] 119% | viability, T/C [22] 121% | viability, T/C [23] 125% | viability, T/C [24] 45.9% | viability, T/C [25] 116% | viability, T/C [26] 117% | viability, T/C [27] 101% | viability, T/C [28] 131% | viability, T/C [29] 111% | viability, T/C [30] 40.1% | viability, T/C [31] 114% | viability, T/C [32] 107% | viability, T/C [33] 120% | viability, T/C [34] 147% | viability, T/C [35] 111% | viability, T/C [36] 48.7% | viability, T/C [37] 104% | viability, T/C [38] 97.6% | viability, T/C [39] 130% | viability, T/C [40] 129% | viability, T/C [41] 127% | viability, T/C [42] 49.6%
8520 nM: IC50 [4]

CC1COCCN1c1cc(C2(O)CC3CCC(C2)O3)c2cnn(-c3ccn[nH]3)c2n1 (stereo not drawn)
inactive: viability, T/C (compound 0.0316 µM) 84.1% and 74.7% and 60.4% | viability, T/C (compound 0.1 µM) 62.5% and 69.8% and 72.1% | viability, T/C (compound 0.316 µM) 45.6% and 32.8% and 34.3% | viability, T/C (compound 1 µM) 24.3% and 23.7% and 22.5% | viability, T/C (compound 3.16 µM) 15% and 14% and 18.6% | viability, T/C (compound 10 µM) 12% and 10.3% (2×)
216 nM and 187 nM and 180 nM: IC50 (curve of compound)

CC1COCCN1c1cc(C2(O)CC3CCC(C2)O3)c2cnn(-c3ccn[nH]3)c2n1 (stereo not drawn) + Nc1ccc(C#CCN(C(=O)Cc2ncc(C(F)(F)F)cc2C(F)(F)F)c2ccc(F)cc2)nn1
157 nM: IC50 [4]
125 nM: IC50 [5]
inactive: viability, T/C [7] 71.3% | viability, T/C [8] 42.2% | viability, T/C [9] 28% | viability, T/C [10] 19.2% | viability, T/C [11] 15.8% | viability, T/C [12] 12.8% | viability, T/C [13] 83.8% | viability, T/C [14] 62.7% | viability, T/C [15] 35.5% | viability, T/C [16] 18.7% | viability, T/C [17] 15.4% | viability, T/C [18] 12.5% | viability, T/C [19] 107% | viability, T/C [20] 44.9% | viability, T/C [21] 34.7% | viability, T/C [22] 19.6% | viability, T/C [23] 18.1% | viability, T/C [24] 9.14% | viability, T/C [25] 75.9% | viability, T/C [26] 62.8% | viability, T/C [27] 29.9% | viability, T/C [28] 22.5% | viability, T/C [29] 15.3% | viability, T/C [30] 9.68% | viability, T/C [31] 99.3% | viability, T/C [32] 55.3% | viability, T/C [33] 28.2% | viability, T/C [34] 21.3% | viability, T/C [35] 16.1% | viability, T/C [36] 11.8% | viability, T/C [37] 94.7% | viability, T/C [38] 54.4% | viability, T/C [39] 29.5% | viability, T/C [40] 15.7% | viability, T/C [41] 18.7% | viability, T/C [42] 10.8%
122 nM: IC50 [6]
171 nM: IC50 [2]
102 nM: IC50 [3]
74.7 nM: IC50 [1]

C=CCn1c(=O)c2cnc(Nc3ccc(N4CCN(C)CC4)cc3)nc2n1-c1cccc(C(C)(C)O)n1
inactive: viability, T/C (compound 0.00316 µM) 104% and 93.2% and 96.4% | viability, T/C (compound 0.01 µM) 122% and 109% and 68.7% | viability, T/C (compound 0.0316 µM) 98.9% and 94.2% and 106% | viability, T/C (compound 0.1 µM) 87.7% and 94.9% and 106% | viability, T/C (compound 0.316 µM) 90.8% and 93.2% and 71.3% | viability, T/C (compound 1 µM) 33.3% and 32.5% and 27.3%
694 nM and 719 nM and 552 nM: IC50 (curve of compound)
